We go through 17 molecules from patent publication US20250213555A1, “SUBSTITUTED TETRAHYDROFURAN ANALOGS AS MODULATORS OF SODIUM CHANNELS” (VERTEX PHARMACEUTICALS INCORPORATED, priority 2021, published 2025).

One may read the IC50 as the concentration that inhibits the measured activity by half.

Molecules are shown by their SMILES.

Chain of human Nav 1.8 (Q9Y5Y9 126-399 limits assumed): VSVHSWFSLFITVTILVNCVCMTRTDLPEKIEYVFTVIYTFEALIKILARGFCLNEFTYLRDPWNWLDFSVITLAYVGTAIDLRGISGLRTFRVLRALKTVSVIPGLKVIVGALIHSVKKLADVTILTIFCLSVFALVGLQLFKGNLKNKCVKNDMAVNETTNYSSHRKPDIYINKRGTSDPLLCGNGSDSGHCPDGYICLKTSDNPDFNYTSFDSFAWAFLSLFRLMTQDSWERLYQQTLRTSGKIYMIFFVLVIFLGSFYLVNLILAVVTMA
Chain of human Nav 1.8 (Q9Y5Y9 660-890 limits assumed): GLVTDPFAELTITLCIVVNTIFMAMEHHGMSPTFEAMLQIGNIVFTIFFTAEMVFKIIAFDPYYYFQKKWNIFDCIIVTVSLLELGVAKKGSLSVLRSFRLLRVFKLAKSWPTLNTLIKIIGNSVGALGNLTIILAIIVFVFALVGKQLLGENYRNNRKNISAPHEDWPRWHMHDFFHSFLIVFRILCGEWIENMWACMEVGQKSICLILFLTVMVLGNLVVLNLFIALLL
Chain of human Nav 1.8 (Q9Y5Y9 1148-1722 limits assumed): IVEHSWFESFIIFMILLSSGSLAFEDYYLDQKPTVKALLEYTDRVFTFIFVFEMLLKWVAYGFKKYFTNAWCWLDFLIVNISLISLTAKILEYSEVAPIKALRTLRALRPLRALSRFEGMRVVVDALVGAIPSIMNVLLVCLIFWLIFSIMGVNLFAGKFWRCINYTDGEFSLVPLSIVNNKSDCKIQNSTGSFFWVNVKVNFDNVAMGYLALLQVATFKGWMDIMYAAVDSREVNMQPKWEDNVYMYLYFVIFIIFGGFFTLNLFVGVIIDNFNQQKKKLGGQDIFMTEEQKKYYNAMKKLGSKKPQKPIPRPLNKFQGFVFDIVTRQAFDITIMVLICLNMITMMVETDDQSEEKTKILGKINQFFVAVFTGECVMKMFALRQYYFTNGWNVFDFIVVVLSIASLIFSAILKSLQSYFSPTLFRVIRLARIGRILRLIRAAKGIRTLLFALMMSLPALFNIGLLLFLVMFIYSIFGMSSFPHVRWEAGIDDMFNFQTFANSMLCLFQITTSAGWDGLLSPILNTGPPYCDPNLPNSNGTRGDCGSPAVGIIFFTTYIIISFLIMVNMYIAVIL

The target in the test is human Nav 1.8 (Homo sapiens, UniProt Q9Y5Y9). Kind of test: E-VIPR assay detecting and measuring Nav inhibition properties. It is filed as cell-based. Particulars: HEK cells expressing a truncated form of human Nav 1.8; compound numbers without "*" (not marked as run in the presence of human serum); read-out: measured IC50 value in the E-VIPR Assay. An excerpt:
E-VIPR Assay Detecting and Measuring Nav Inhibition Properties
Sodium ion channels are voltage-dependent proteins that can be activated by inducing membrane voltage changes by applying electric fields. The electrical stimulation instrument and methods of use, referred to as E-VIPR, are described in International Publication No. WO 2002/008748 A3 and C.-J. Huang et al. Characterization of voltage-gated sodium channel blockers by electrical stimulation and fluorescence detection of membrane potential, 24 Nature Biotech. 439-46 (2006), both of which are incorporated by reference in their entirety. The instrument comprises a microtiter plate handler, an optical system for exciting the coumarin dye while simultaneously recording the coumarin and oxonol emissions, a waveform generator, a current- or voltage-controlled amplifier, and parallel electrode pairs that are inserted into assay plate wells. Under integrated computer control, this instrument passes user-programmed electrical stimulus protocols to cells within the wells of the microtiter plate.
16-20 hours prior to running the assay on E-VIPR, HEK cells expressing a truncated form of human Nav 1.8 with full channel activity were seeded into microtiter 384-well plates, pre-coated with matrigel, at a density of 25,000 cells per well. 2.5-5% KIR2.1 Bacmam virus was added to the final cell suspension before seeding into cell plates. HEK cells were grown in Dulbecco's Modified Eagle's Medium (DMEM) supplemented with 10% FBS (Fetal Bovine Serum, qualified; Sigma #F4135), 1% NEAA (Non-Essential Amino Acids, Gibco #11140), 1% HEPES (Gibco #15630), 1% Pen-Strep (Penicillin-Streptomycin; Gibco #15140) and 5 μg/ml Blasticidin (Gibco #R^210-01). Cells were expanded in vented cap cell culture flasks, with 90-95% humidity and 5% CO2.
100 mg/mL Pluronic F-127 (Sigma #P2443), in dry DMSO
Compound Plates: Corning 384-well Polypropylene Round Bottom #3656
Cell Plates: 384-well tissue culture treated plates (Greiner #781091-2B)
2.5-5% KIR 2.1 Bacmam virus (produced in-house), prepared as described in Section 3.3 of J. A. Fornwald et al., Gene Expression in Mammalian Cells Using BacMam, a Modified Baculovirus System, 1350 Methods in Molecular Biology 95-116 (2016), the entire contents of which are incorporated by reference. The concentration used can be dependent on viral titer of each batch.
5 mM DiSBAC6(3), a voltage sensitive oxonol acceptor (CAS number 169211-44-3; 5-[3-(1,3-dihexylhexahydro-4,6-dioxo-2-thioxo-5-pyrimidinyl)-2-propen-1-ylidene]-1,3-dihexyldihydro-2-thioxo-4,6 (1H,5H)-pyrimidinedione), in dry DMSO. The preparation of DiSBAC6(3) is analogous to that of DiSBAC4(3) as described in Voltage Sensing by Fluorescence Resonance Energy Transfer in Single Cells, Gonzalez, J. E. and Tsien, R. Y. (1995) Biophys. J. 69, 1272-1280.
5 mM CC2-DMPE, a commercially available membrane-bound coumarin phospholipid FRET donor (ThermoFisher Scientific catalog number K1017, CAS number 393782-57-5; tetradecanoic acid, 1,1′-[(1R)-1-[8-(6-chloro-7-hydroxy-2-oxo-2H-1-benzopyran-3-yl)-3-hydroxy-3-oxido-8-oxo-2,4-dioxa-7-aza-3-phosphaoct-1-yl]-1,2-ethanediyl] ester) was prepared in dry DMSO. See also, Improved indicators of cell membrane potential that use fluorescence resonance energy transfer, Gonzalez, J. E. and Tsien, R. Y. (1997) Chem. Biol. 4, 269-277.
Voltage Assay Background Suppression Compound (VABSC-1) is prepared in H2O (89-363 mM, range used to maintain solubility)
Human Serum (HS, Millipore #S1P1-01KL, or Sigma SLBR5469V and SLBR5470V as a 50%/50% mixture, for 25% assay final concentration)
• Sodium Chloride 160 mM (9.35 g/L), Potassium Chloride, 4.5 mM (0.335 g/L), Glucose 10 mM (1.8 g/L), Magnesium Chloride (Anhydrous) 1 mM (0.095 g/L), Calcium Chloride 2 mM (0.222 g/L), HEPES 10 mM (2.38 g/L) in water. […]
On to `COc1c([C@H]2[C@H](C(=O)Nc3cccc(C(=O)N4CCNCC4)n3)O[C@@](C)(C(F)(F)F)[C@H]2C)ccc(F)c1F` [Compound 17, (2R,3S,4S,5R)-3-(3,4-difluoro-2-methoxyphenyl)-4,5-dimethyl-N-(6-(piperazine-1-carbonyl)pyridin-2-yl)-5-(trifluoromethyl)tetrahydrofuran-2-carboxamide], for which the IC50 was in the range of 10 to 100 nM. As for `C[C@H](COc1c([C@H]2[C@H](C(=O)Nc3ccnc(C(N)=O)c3)O[C@@](C)(C(F)(F)F)[C@H]2C)ccc(F)c1F)N1CC2(COC2)C1` [Compound 42, 4-((2R,3S,4S,5R)-3-(2-((R)-2-(2-oxa-6-azaspiro[3.3]heptan-6-yl)propoxy)-3,4-difluorophenyl)-4,5-dimethyl-5-(trifluoromethyl)tetrahydrofuran-2-carboxamido)picolinamide], the figure is 10 to 100 nM. Regarding `C[C@H]1[C@@H](c2ccc(F)c(F)c2OCC2(CO)CCC2)[C@H](C(=O)Nc2ccnc(C(N)=O)c2)O[C@@]1(C)C(F)(F)F` [Compound 97, 4-((2R,3S,4S,5R)-3-(3,4-difluoro-2-((1-(hydroxymethyl)cyclobutyl)methoxy)phenyl)-4,5-dimethyl-5-(trifluoromethyl)tetrahydrofuran-2-carboxamido)picolinamide], the half-inhibitory concentration (IC50) is 10 to 100 nM.

On to `C[C@H]1[C@@H](c2ccc(F)c(F)c2OCCN(C)C)[C@H](C(=O)Nc2ccnc(C(N)=O)c2)O[C@@]1(C)C(F)(F)F` [Compound 44, 4-((2R,3S,4S,5R)-3-(2-(2-(dimethylamino)ethoxy)-3,4-difluorophenyl)-4,5-dimethyl-5-(trifluoromethyl)tetrahydrofuran-2-carboxamido) picolinamide], for which the IC50 was in the range of 10 to 100 nM.

Turning to `COc1c([C@H]2[C@H](C(=O)Nc3nccc(C(=O)N4CCN(C)CC4)n3)O[C@@](C)(C(F)(F)F)[C@H]2C)ccc(F)c1F` [Compound 13, (2R,3S,4S,5R)-3-(3,4-difluoro-2-methoxyphenyl)-4,5-dimethyl-N-(4-(4-methylpiperazine-1-carbonyl)pyrimidin-2-yl)-5-(trifluoromethyl)tetrahydrofuran-2-carboxamide], the IC50 is 100 to 1000 nM. Regarding `C[C@H]1[C@@H](c2ccc(F)c(F)c2OCCN2CC[C@H](F)C2)[C@H](C(=O)Nc2ccnc(C(N)=O)c2)O[C@@]1(C)C(F)(F)F` [Compound 49, 4-((2R,3S,4S,5R)-3-(3,4-difluoro-2-(2-((S)-3-fluoropyrrolidin-1-yl)ethoxy)phenyl)-4,5-dimethyl-5-(trifluoromethyl)tetrahydrofuran-2-carboxamido)picolinamide], the IC50 is 10 to 100 nM. Turning to `CO[C@H](CO)COc1c([C@H]2[C@H](C(=O)Nc3ccnc(C(N)=O)c3)O[C@@](C)(C(F)(F)F)[C@H]2C)ccc(F)c1F` (single isomer, unassigned) [Compound 160, rel-4-((2R*,3S*,4S*,5R*)-3-(3,4-difluoro-2-(3-hydroxy-2-methoxypropoxy)phenyl)-4,5-dimethyl-5-(trifluoromethyl)tetrahydrofuran-2-carboxamido)picolinamide], the half-inhibitory concentration (IC50) was < 10 nM. Regarding `CC1C(c2ccc(F)c(F)c2OCC2CC(C)(O)C2)C(C(=O)Nc2ccnc(C(N)=O)c2)OC1(C)C(F)(F)F` [Compound 199, rel-4-((2R*,3S*,4S*,5R*)-3-(3,4-difluoro-2-(((1r,3S)-3-hydroxy-3-methylcyclobutyl)methoxy)phenyl)-4,5-dimethyl-5-(trifluoromethyl)tetrahydrofuran-2-carboxamido)picolinamide], the IC50 lay in the range of 10 to 100 nM. Then `C[C@H]1[C@@H](c2ccc(F)c(F)c2OCCN2CC(C)(F)C2)[C@H](C(=O)Nc2ccnc(C(N)=O)c2)O[C@@]1(C)C(F)(F)F` [Compound 121, 4-((2R,3S,4S,5R)-3-(3,4-difluoro-2-(2-(3-fluoro-3-methylazetidin-1-yl)ethoxy)phenyl)-4,5-dimethyl-5-(trifluoromethyl)tetrahydrofuran-2-carboxamido)picolinamide], with < 10 nM; and `CON=C(C)COc1c([C@H]2[C@H](C(=O)Nc3ccnc(C(N)=O)c3)O[C@@](C)(C(F)(F)F)[C@H]2C)ccc(F)c1F` [Compound 193, 4-((2R,3S,4S,5R)-3-(3,4-difluoro-2-(2-(methoxyimino)propoxy)phenyl)-4,5-dimethyl-5-(trifluoromethyl)tetrahydrofuran-2-carboxamido)picolinamide], with < 10 nM. Then `COc1c([C@H]2[C@H](C(=O)Nc3ccnc(C(=O)N(C)CCN(C)C)c3)O[C@@](C)(C(F)(F)F)[C@H]2C)ccc(F)c1F` [Compound 273, 4-((2R,3S,4S,5R)-3-(3,4-difluoro-2-methoxyphenyl)-4,5-dimethyl-5-(trifluoromethyl)tetrahydrofuran-2-carboxamido)-N-(2-(dimethylamino)ethyl)-N-methylpicolinamide], with < 10 nM; and `C=C(CO)COc1c([C@H]2[C@H](C(=O)Nc3ccnc(C(N)=O)c3)O[C@@](C)(C(F)(F)F)[C@H]2C)ccc(F)c1F` [Compound 132], with < 10 nM. For the molecule `C[C@H]1[C@@H](c2ccc(F)c(F)c2OC2CC3(CC(O)C3)C2)[C@H](C(=O)Nc2ccnc(C(N)=O)c2)O[C@@]1(C)C(F)(F)F` (stereo partly drawn) [Compound 204, 4-((2R,3S,4S,5R)-3-(3,4-difluoro-2-((6-hydroxyspiro[3.3]heptan-2-yl)oxy)phenyl)-4,5-dimethyl-5-(trifluoromethyl)tetrahydrofuran-2-carboxamido)picolinamide], the IC50 lay in the range of 100 to 1000 nM. Then `C[C@H]1[C@@H](c2ccc(F)c(F)c2OCCN2CC3CC(C2)O3)[C@H](C(=O)Nc2ccnc(C(N)=O)c2)O[C@@]1(C)C(F)(F)F` [Compound 110, 4-((2R,3S,4S,5R)-3-(2-(2-(6-oxa-3-azabicyclo[3.1.1]heptan-3-yl)ethoxy)-3,4-difluorophenyl)-4,5-dimethyl-5-(trifluoromethyl)tetrahydrofuran-2-carboxamido)picolinamide], with < 10 nM. Turning to `COc1c([C@H]2[C@H](C(=O)Nc3ccnc(C(=O)N4CCN(C)CC4)c3)O[C@@](C)(C(F)(F)F)[C@H]2C)ccc(F)c1F` [Compound 8, (2R,3S,4S,5R)-3-(3,4-difluoro-2-methoxy-phenyl)-4,5-dimethyl-N-[2-(4-methylpiperazine-1-carbonyl)-4-pyridyl]-5-(trifluoromethyl)tetrahydrofuran-2-carboxamide], the 50% inhibitory concentration (IC50) was < 10 nM. For `CC[C@H](CO)COc1c([C@H]2[C@H](C(=O)Nc3ccnc(C(N)=O)c3)O[C@@](C)(C(F)(F)F)[C@H]2C)ccc(F)c1F` (single isomer, unassigned) [Compound 92, rel-4-((2R*,3S*,4S*,5R*)-3-(3,4-difluoro-2-(2-(hydroxymethyl)butoxy)phenyl)-4,5-dimethyl-5-(trifluoromethyl)tetrahydrofuran-2-carboxamido)picolinamide], the IC50 fell in the range of 10 to 100 nM. As for `C=C(COc1c([C@H]2[C@H](C(=O)Nc3ccnc(C(N)=O)c3)O[C@@](C)(C(F)(F)F)[C@H]2C)ccc(F)c1F)C(F)(F)F` [Compound 75, 4-((2R,3S,4S,5R)-3-(3,4-difluoro-2-((2-(trifluoromethyl)allyl)oxy)phenyl)-4,5-dimethyl-5-(trifluoromethyl)tetrahydrofuran-2-carboxamido)picolinamide], the figure is < 10 nM.
